Consider three compounds from patent publication US11246309B2, “Preserving agent for organs or tissue and preservation method for organs or tissue” (ISHIHARA SANGYO KAISHA, LTD., priority 2015, dated 2022).

Each structure is given as a SMILES string.

Assay [1] relates to liver. As to the kind of experiment: Organ preservation test: hepatic histopathological change after preservation at 4° C. Also noted: species or system SD rats. To be noted: additives in UW solution, score 0 to 3.0 per sample. The procedure: The formulations of preserving solutions containing UW solution, and a combination of quercetin and sugar were evaluated using a hepatic histopathological change as an index.
Williams solution only, Williams solution containing only quercetin (10 μg/mL), Williams solution containing only fructose (0.2M), Williams solution containing only sucrose (0.1M), Williams solution containing quercetin (10 μg/mL) and fructose (0.2M), or Williams solution containing quercetin (10 μg/mL) and sucrose (0.1M) was used as an organ perfusion solution. Subsequently, as an organ preserving solution, UW solution only, UW solution containing only quercetin (10 μg/mL), UW solution containing only fructose (0.2M), UW solution containing only sucrose (0.1M), UW solution containing quercetin (10 μg/mL) and fructose (0.2M) or UW solution containing quercetin (10 μg/mL) and sucrose (0.1M) was used.
SD rats (male, body weight=264.1 g to 317.2 g) were injected with heparin from the portal vein under anesthesia. Thereafter, they were perfused with a physiological saline solution (8 cmH2O, about 100 mL) at room temperature, and then perfused with each organ perfusion solution (8 cmH2O, about 100 mL) at room temperature. Thereafter, the liver was excised, immersed in 20 mL of each organ preserving solution, and preserved at 4° C. 1 day after and 2 days after the preservation was started, all liver samples were immobilized using a 10% phosphate buffer formalin aqueous solution, and embedded in paraffin according to the standard method. Each sample was sliced into about 6 μm and a hematoxylin-eosin staining sample was prepared, followed by microscopic examination. The degrees of the observed histopathological change were converted to scores as shown below, and summed as cumulative values.
Score 0: no change was observed, Score 0.5: slight change was observed, Score 1.0: small change was observed, Score 2.0: intermediate change was observed, Score 3.0: great change was observed.

Assay [2] has as its system liver. The assay is described as follows: Organ preservation test: rat liver preserved at 4° C., ALT in organ immersion solution. Also noted: species or system SD rats. To be noted: additives in UW solution, liver at 4° C., mean of n=3 ± SD. Here is the method:
The protective action of a preserving solution for organs or tissue used in organ transplantation or tissue transplantation was assumed, and formulations of preservative solutions containing UW solution, and a combination of quercetin and sugar were evaluated using liver damage degree as an index. Williams solution (GIBCO, No. 12551-032) only, Williams solution containing quercetin (Sigma-Aldrich, 337951-25G) (10 μg/mL), Williams solution containing quercetin (10 μg/mL) and fructose (0.05M to 0.4M) (Kanto Chemical Co., Inc., Code No. 16065-00) (0.05M to 0.4M), or Williams solution containing quercetin (10 μg/mL) and sucrose (0.025M to 0.2M) (Nacalai Tesque, Inc., Code No. 30404-45) (0.025M to 0.2M) was used as an organ perfusion solution. Subsequently, UW solution (VSP1000, […] (cold storage solution) 1000 mL: Astellas Pharma Inc.) only, UW solution containing quercetin (10 μg/mL), UW solution containing quercetin (10 μg/mL) and fructose (0.05M to 0.4M), or UW solution containing quercetin (10 μg/mL) and sucrose (0.025M to 0.2M) was used as an organ preserving solution. SD rats (male, body weight=255.4 g to 339.0 g) were injected with heparin from the portal vein under anesthesia. Thereafter, they were perfused with a physiological saline solution (8 cmH2O, about 100 mL) at room temperature, and then perfused with each organ perfusion solution (8 cmH2O, about 100 mL) at room temperature. Thereafter, the liver was excised, immersed in 20 mL of each organ preserving solution, and preserved at 4° C. A part of each organ preserving solution was collected at 1 day after, 3 days after, 5 days after, and 7 days after the preservation was started, and ALT (alanine aminotransferase) (IU/L) was measured as an index of the degree of liver damage due to low-temperature preservation. The measured ALT are shown in Tables 1 and 2 (average value of n=3±standard deviation).

The mark [3] stands for this setting: 1 day after preservation at 4° C. was started.
The mark [4] stands for this setting: 2 days after preservation at 4° C. was started.

With `OC[C@H]1O[C@@](CO)(O[C@H]2O[C@H](CO)[C@@H](O)[C@H](O)[C@H]2O)[C@@H](O)[C@@H]1O` [0.1M Sucrose, sucrose], in the assay with liver [1] (setting [3]), the “Histopathological Change: Diffuse Vacuolar Degeneration (Cumulative Score of n = 3)” value is reported as 3.0, the “Histopathological Change: Sporadic Single Cell Cloudy Swelling (Cumulative Score of n = 3)” value was 2.0 and the “Histopathological Change: Sporadic Single Cell Necrosis (Cumulative Score of n = 3)” value is given as 0.5. In the assay on liver [1] (setting [4]), the “Histopathological Change: Diffuse Vacuolar Degeneration (Cumulative Score of n = 3)” value was 3.0, the “Histopathological Change: Sporadic Single Cell Cloudy Swelling (Cumulative Score of n = 3)” value is 2.5 and the “Histopathological Change: Sporadic Single Cell Necrosis (Cumulative Score of n = 3)” value stood at 1.0.
Regarding `O=C(CO)[C@@H](O)[C@H](O)[C@H](O)CO` [0.2M Fructose, fructose], in the assay with liver [1] (setting [3]), the “Histopathological Change: Diffuse Vacuolar Degeneration (Cumulative Score of n = 3)” value stood at 2.0, the “Histopathological Change: Sporadic Single Cell Cloudy Swelling (Cumulative Score of n = 3)” value is recorded as 2.5 and the “Histopathological Change: Sporadic Single Cell Necrosis (Cumulative Score of n = 3)” value is listed as 1.0. In addition, in the assay with liver [1] (setting [4]), the “Histopathological Change: Diffuse Vacuolar Degeneration (Cumulative Score of n = 3)” value was 1.5, the “Histopathological Change: Sporadic Single Cell Cloudy Swelling (Cumulative Score of n = 3)” value came out at 1.0 and the “Histopathological Change: Sporadic Single Cell Necrosis (Cumulative Score of n = 3)” value is 0.5.
In the case of `O=c1c(O)c(-c2ccc(O)c(O)c2)oc2cc(O)cc(O)c12` [Quercetin 10 μg/mL, quercetin], the “Histopathological Change: Diffuse Vacuolar Degeneration (Cumulative Score of n = 3)” value in the assay with liver [1] (setting [3]) and in the assay with liver [1] (setting [4]) was 3.0 each time. For the same compound, the entries for the “Histopathological Change: Sporadic Single Cell Cloudy Swelling (Cumulative Score of n = 3)” value with liver [1] (setting [3]) and with liver [1] (setting [4]) were 1.5 and 2.0, respectively. Further, the “Histopathological Change: Sporadic Single Cell Necrosis (Cumulative Score of n = 3)” value was determined as 0.0 in the assay on liver [1] (setting [3]) and 0.5 in the assay on liver [1] (setting [4]). Moreover, the “ALT Value in Organ Immersion Solution” value in the assay on liver [2] (Table 1, 1 day after) is reported as 65 ± 71 IU/L; in the assay with liver [2] (Table 1, 3 days after), 90 ± 82 IU/L; in the assay with liver [2] (Table 1, 5 days after), 98 ± 77 IU/L; in the assay on liver [2] (Table 1, 7 days after) it was 117 ± 71 IU/L; in the assay with liver [2] (Table 2, 1 day after) it was 62 ± 68 IU/L; in the assay on liver [2] (Table 2, 3 days after) it was 108 ± 121 IU/L. The “ALT Value in Organ Immersion Solution” value in the assay with liver [2] (Table 2, 5 days after) is 126 ± 135 IU/L; in the assay with liver [2] (Table 2, 7 days after) it was 148 ± 144 IU/L.
